Patent publication US8048862B2, “Macrocyclic inhibitors of hepatitis C virus replication” (priority 2008, dated 2011)
Where two headings read alike, the source gives them in different places.

Assays:
[1] = biological target: NS3/NS4 complexes (Hepatitis C virus genotype 1a, UniProt P27958); assay: NS3/NS4 inhibition activity (IC50); format: biochemical
Outline: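 Buffer: 50 mM Tris-HCl (pH 7.5), 10 mM DTT, 25 μM NS4A peptide, 0.6 mM LDAO and 15% glycerol. Assays were run at 23 °C with preformed NS3/NS4 complex, and the compound concentration giving inhibition was derived as an IC50.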

[2] = tested on: hepatitis C replicon; assay: hepatitis C replicon EC50; format: cell-based; details: Hepatitis C virus, hepatitis C replicon, read-out: EC50
From the text: NS3-NS4 inhibition activity can be determined using known assay methods.

Sequence of NS3/NS4 complexes (P27958 1027-1657): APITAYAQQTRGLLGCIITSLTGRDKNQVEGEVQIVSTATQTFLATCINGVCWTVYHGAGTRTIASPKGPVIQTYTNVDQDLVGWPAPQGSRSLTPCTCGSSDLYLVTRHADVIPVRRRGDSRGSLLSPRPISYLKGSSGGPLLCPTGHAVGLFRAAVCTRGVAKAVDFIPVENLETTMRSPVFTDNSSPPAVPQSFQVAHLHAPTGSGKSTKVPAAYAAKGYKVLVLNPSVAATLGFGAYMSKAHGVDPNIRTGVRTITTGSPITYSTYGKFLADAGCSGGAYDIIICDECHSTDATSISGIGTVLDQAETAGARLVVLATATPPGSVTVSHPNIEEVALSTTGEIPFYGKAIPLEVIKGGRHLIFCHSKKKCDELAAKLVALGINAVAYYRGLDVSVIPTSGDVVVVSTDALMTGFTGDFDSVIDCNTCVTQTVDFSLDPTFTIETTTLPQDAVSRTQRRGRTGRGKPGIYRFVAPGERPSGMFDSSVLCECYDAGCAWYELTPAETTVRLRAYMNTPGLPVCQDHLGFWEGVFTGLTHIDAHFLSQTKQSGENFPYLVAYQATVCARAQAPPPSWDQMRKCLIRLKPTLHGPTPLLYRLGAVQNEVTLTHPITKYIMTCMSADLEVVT
Sequence of NS3/NS4 complexes (P27958 1658-1711): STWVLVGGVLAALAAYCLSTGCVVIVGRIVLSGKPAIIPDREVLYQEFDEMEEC

SMILES	IC50 ([1]; Table 2, read-out: IC50) [nM]	EC50 ([2]; Table 2) [nM]	IC50 ([1]; Table 3, read-out: IC50) [nM]	EC50 ([2]; Table 3) [nM]
COc1ccc2c(O[C@@H]3C[C@H]4C(=O)N[C@]5(C(=O)NS(=O)(=O)C6CC6)C[C@H]5/C=C\CCCCC[C@H](Nc5cc(F)cc(C(F)(F)F)c5)C(=O)N4C3)cc(-c3nc(C(C)C)cs3)nc2c1C [Compound 439]	< 10	< 10		
COc1ccc2c(O[C@@H]3C[C@H]4C(=O)N[C@]5(C(=O)NS(=O)(=O)C6CC6)C[C@H]5/C=C\CCCCC[C@H](Nc5ccccc5)C(=O)N4C3)cc(-c3ccccc3)nc2c1 [Compound 164]	< 10	< 10		
CC(C)n1c(O[C@@H]2C[C@H]3C(=O)N[C@]4(C(=O)NS(=O)(=O)C5(C)CC5)C[C@H]4CCCCCCC[C@H](Nc4cc(F)cc(C(F)(F)F)c4)C(=O)N3C2)nc2ccccc21 [Compound 465]	< 10	75 to 500		
COc1ccc2c(O[C@@H]3C[C@H]4C(=O)N[C@]5(C(=O)NS(=O)(=O)C6(C)CC6)C[C@H]5/C=C\CCCCC[C@H](Nc5cccc(C)c5)C(=O)N4C3)cc(-c3nc(C(C)C)cs3)nc2c1C [Compound 477]	< 10	< 10		
CC1(S(=O)(=O)NC(=O)[C@@]23C[C@H]2/C=C\CCCCC[C@H](Nc2nc4ccccc4o2)C(=O)N2C[C@H](Oc4nccc5ccccc45)C[C@H]2C(=O)N3)CC1 [Compound 380]	< 10	10 to 75		
COc1ccc2c(O[C@@H]3C[C@H]4C(=O)N[C@]5(C(=O)NS(=O)(=O)C6(C)CC6)C[C@H]5/C=C\CCCCC[C@H](Nc5ccc(F)c(C(F)(F)F)c5)C(=O)N4C3)cc(-c3nc(C(C)C)cs3)nc2c1C [Compound 374]	< 10	< 10		
COc1ccc2c(O[C@@H]3C[C@H]4C(=O)N[C@]5(C(=O)NS(=O)(=O)C6CC6)C[C@H]5/C=C\CCCCC[C@H](NC(=O)OC(C)(C)C)C(=O)N4C3)cc(-c3ccccc3)nc2c1 [Compound 1075]			< 10	< 10
O=C1N[C@]2(C(=O)NS(=O)(=O)C3CC3)C[C@H]2/C=C\CCCCC[C@H](Nc2cc(F)cc(C(F)(F)F)c2)C(=O)N2C[C@H](OC(=O)N3Cc4cccc(F)c4C3)C[C@@H]12 [Compound 1128]			< 10	< 10
COc1ccc2c(O[C@@H]3C[C@H]4C(=O)N[C@]5(C(=O)NS(=O)(=O)C6(C)CC6)C[C@H]5/C=C\CCCCC[C@H](Nc5cc(C)cc(F)c5)C(=O)N4C3)cc(-c3nc(C(C)C)cs3)nc2c1C [Compound 482]	< 10	< 10		
CC(C)n1c(O[C@@H]2C[C@H]3C(=O)N[C@]4(C(=O)O)C[C@H]4/C=C\CCCCC[C@H](Nc4cc(F)cc(C(F)(F)F)c4)C(=O)N3C2)nc2ccccc21 [Compound 320]	< 10	< 10		
CC1(S(=O)(=O)NC(=O)[C@@]23C[C@H]2/C=C\CCCCC[C@H](Nc2cccc(C(F)(F)F)c2)C(=O)N2C[C@H](Oc4nccc5ccccc45)C[C@H]2C(=O)N3)CC1 [Compound 230]	< 10	< 10		
COc1ccc2c(O[C@@H]3C[C@H]4C(=O)N[C@]5(C(=O)NS(=O)(=O)C6(C)CC6)C[C@H]5/C=C\CCCCC[C@H](Nc5cccc(C(=O)N(C)C)c5)C(=O)N4C3)cc(-c3nc(C(C)C)cs3)nc2c1C [Compound 479]	< 10	< 10		
CC1(S(=O)(=O)NC(=O)[C@@]23C[C@H]2/C=C\CCCCC[C@H](Nc2cccc(C(F)(F)F)c2)C(=O)N2C[C@H](OC(=O)N4Cc5cccc(F)c5C4)C[C@H]2C(=O)N3)CC1 [Compound 1116]			< 10	< 10
COc1ccc2c(O[C@@H]3C[C@H]4C(=O)N[C@]5(C(=O)NS(=O)(=O)C6(C)CC6)C[C@H]5/C=C\CCCCC[C@H](Nc5cc(F)cc(C(F)(F)F)c5)C(=O)N4C3)cc(-c3nc(C(C)C)cs3)nc2c1C [Compound 358]	< 10	10 to 75		
CC(C)(C)OC(=O)N[C@H]1CCCCC/C=C\[C@@H]2C[C@@]2(C(=O)NS(=O)(=O)c2ccccc2OCC(N)=O)NC(=O)[C@@H]2C[C@@H](O)CN2C1=O [Compound 1093]			> 100	> 100
CC(C)(C)OC(=O)N[C@H]1CCCCC/C=C\[C@@H]2C[C@@]2(C(=O)NS(=O)(=O)C2CC2)NC(=O)[C@@H]2C[C@@H](Oc3nc4ccc(F)cc4s3)CN2C1=O [Compound 1010]			< 10	10 to 100
COc1ccc2c(O[C@@H]3C[C@H]4C(=O)N[C@]5(C(=O)NS(=O)(=O)C6(C)CC6)C[C@H]5/C=C\CCCCC[C@H](Nc5cccc(C#N)c5)C(=O)N4C3)cc(-c3nc(C(C)C)cs3)nc2c1C [Compound 476]	< 10	< 10		
CC(C)(C)OC(=O)N[C@H]1CCCCC/C=C\[C@@H]2C[C@@]2(C(=O)NS(=O)(=O)C2CC2)NC(=O)[C@@H]2C[C@@H](Oc3nc4cc(F)ccc4o3)CN2C1=O [Compound 1034]			< 10	10 to 100

SMILES	IC50 ([1]; Table 2, read-out: IC50) [nM]	EC50 ([2]; Table 2) [nM]	IC50 ([1]; Table 3, read-out: IC50) [nM]	EC50 ([2]; Table 3) [nM]
CC1(S(=O)(=O)NC(=O)[C@@]23C[C@H]2/C=C\CCCCC[C@H](Nc2cccc(OC(F)(F)F)c2)C(=O)N2C[C@H](Oc4nccc5ccccc45)C[C@H]2C(=O)N3)CC1 [Compound 444]	< 10	10 to 75		
O=C1N[C@]2(C(=O)NS(=O)(=O)C3CC3)C[C@H]2/C=C\CCCCC[C@H](NCc2ccccc2)C(=O)N2C[C@H](Oc3nc4ccccc4s3)C[C@@H]12 [Compound 197]	< 10	10 to 75		
COc1ccc2c(O[C@@H]3C[C@H]4C(=O)N[C@]5(C(=O)NS(=O)(=O)C6(C)CC6)C[C@H]5/C=C\CCCCC[C@H](Nc5ccc(C(F)(F)F)cc5)C(=O)N4C3)cc(-c3nc(C(C)C)cs3)nc2c1C [Compound 445]	< 10	< 10		
Cc1cccc2c1nc(O[C@@H]1C[C@H]3C(=O)N[C@]4(C(=O)NS(=O)(=O)C5(C)CC5)C[C@H]4/C=C\CCCCC[C@H](Nc4ccccc4)C(=O)N3C1)n2C(C)C [Compound 471]	< 10	10 to 75		
CC(C)n1c(O[C@@H]2C[C@H]3C(=O)N[C@]4(C(=O)NS(=O)(=O)C5CC5)C[C@H]4/C=C\CCCCC[C@H](Nc4cc(F)cc(C(F)(F)F)c4)C(=O)N3C2)nc2ccccc21 [Compound 393]	< 10	10 to 75		
COc1ccc2c(O[C@@H]3C[C@H]4C(=O)N[C@]5(C(=O)NS(=O)(=O)C6(C)CC6)C[C@H]5/C=C\CCCCC[C@H](Nc5ccccc5)C(=O)N4C3)cc(-c3nc(C(C)C)cs3)nc2c1C [Compound 359]	< 10	< 10		
CC(C)(C)OC(=O)N[C@H]1CCCCC/C=C\[C@@H]2C[C@@]2(C(=O)NS(=O)(=O)C2CC2)NC(=O)[C@@H]2C[C@@H](Oc3nc4ccc(Cl)cc4o3)CN2C1=O [Compound 1036]			< 10	> 100
Cc1cc(F)cc(N[C@H]2CCCCC/C=C\[C@@H]3C[C@@]3(C(=O)NS(=O)(=O)C3(C)CC3)NC(=O)[C@@H]3C[C@@H](OC(=O)N4Cc5cccc(F)c5C4)CN3C2=O)c1 [Compound 1105]			< 10	< 10
CC(C)n1c(O[C@@H]2C[C@H]3C(=O)N[C@]4(C(=O)NS(=O)(=O)C5(C)CC5)C[C@H]4/C=C\CCCCC[C@H](Nc4ccccc4)C(=O)N3C2)nc2ccccc21 [Compound 365]	< 10	< 10		
CC(C)(C)OC(=O)N[C@H]1CCCCC/C=C\[C@@H]2C[C@@]2(C(=O)NS(=O)(=O)C2(C)CC2)NC(=O)[C@@H]2C[C@@H](Oc3nc4ccc(F)cc4s3)CN2C1=O [Compound 1011]			< 10	10 to 100
Cc1cccc2oc(O[C@@H]3C[C@H]4C(=O)N[C@]5(C(=O)NS(=O)(=O)C6CC6)C[C@H]5/C=C\CCCCC[C@H](NC(=O)OC(C)(C)C)C(=O)N4C3)nc12 [Compound 1031]			< 10	10 to 100
CC(C)n1c(O[C@@H]2C[C@H]3C(=O)N[C@]4(C(=O)NS(=O)(=O)C5CC5)C[C@H]4/C=C\CCCCC[C@H](NC(=O)OC(C)(C)C)C(=O)N3C2)nc2ccccc21 [Compound 1142]			< 10	< 10
COc1ccc2c(O[C@@H]3C[C@H]4C(=O)N[C@]5(C(=O)NS(=O)(=O)C6(C)CC6)C[C@H]5/C=C\CCCCC[C@H](Nc5cc(F)cc(C(F)(F)F)c5)C(=O)N4C3)cc(-c3ccccc3)nc2c1 [Compound 355]	< 10	< 10		
CC(C)(C)OC(=O)N[C@H]1CCCCC/C=C\[C@@H]2C[C@@]2(C(=O)NS(=O)(=O)C2CC2)NC(=O)[C@@H]2C[C@@H](Oc3nc4ccc(Cl)cc4s3)CN2C1=O [Compound 1018]			< 10	10 to 100
COc1cccc(N[C@H]2CCCCC/C=C\[C@@H]3C[C@@]3(C(=O)NS(=O)(=O)C3(C)CC3)NC(=O)[C@@H]3C[C@@H](OC(=O)N4Cc5cccc(F)c5C4)CN3C2=O)c1 [Compound 1104]			< 10	< 10
CC1(S(=O)(=O)NC(=O)[C@@]23C[C@H]2/C=C\CCCCC[C@H](Nc2cc(F)cc(C(F)(F)F)c2)C(=O)N2C[C@H](Oc4nc5ccccc5s4)C[C@H]2C(=O)N3)CC1 [Compound 345]	< 10	10 to 75		
CC1(S(=O)(=O)NC(=O)[C@@]23C[C@H]2/C=C\CCCCC[C@H](Nc2ccccc2)C(=O)N2C[C@H](OC(=O)N4Cc5cccc(F)c5C4)C[C@H]2C(=O)N3)CC1 [Compound 1102]			< 10	< 10
